The source of these data is PMC4109017 (Nature Communications, 2014).

The target in assay [1] is FALDH (K463X) (Homo sapiens, UniProt P51648). In words: fluorometric NADH formation, Michaelis-Menten fit. The settings on record: 1 mM NAD, 25 mM sodium pyrophosphate pH 8.0, 0.1% Triton X-100, 37 °C. The format is biochemical.
The target in assay [2] is FALDH Q445X (without gatekeeper helix) (Homo sapiens, UniProt P51648). Description: fluorometric NADH formation, Michaelis-Menten fit. The settings on record: 1 mM NAD, 25 mM sodium pyrophosphate pH 8.0, 0.1% Triton X-100, 37 °C. The format is biochemical.
Sequence of FALDH Q445X (without gatekeeper helix) (P51648 1-444): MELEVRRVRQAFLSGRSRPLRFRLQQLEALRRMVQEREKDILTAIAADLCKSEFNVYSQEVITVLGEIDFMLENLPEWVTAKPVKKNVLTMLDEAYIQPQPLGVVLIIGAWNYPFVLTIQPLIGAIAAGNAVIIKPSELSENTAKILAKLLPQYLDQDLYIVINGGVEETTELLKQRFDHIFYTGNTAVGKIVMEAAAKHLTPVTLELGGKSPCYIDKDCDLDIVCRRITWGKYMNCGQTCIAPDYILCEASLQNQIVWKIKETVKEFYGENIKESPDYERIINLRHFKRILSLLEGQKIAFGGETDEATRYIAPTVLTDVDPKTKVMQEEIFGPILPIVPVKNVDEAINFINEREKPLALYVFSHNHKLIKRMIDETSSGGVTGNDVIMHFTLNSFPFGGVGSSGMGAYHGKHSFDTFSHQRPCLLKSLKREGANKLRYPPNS

Sequence of FALDH (K463X) (P51648 1-462): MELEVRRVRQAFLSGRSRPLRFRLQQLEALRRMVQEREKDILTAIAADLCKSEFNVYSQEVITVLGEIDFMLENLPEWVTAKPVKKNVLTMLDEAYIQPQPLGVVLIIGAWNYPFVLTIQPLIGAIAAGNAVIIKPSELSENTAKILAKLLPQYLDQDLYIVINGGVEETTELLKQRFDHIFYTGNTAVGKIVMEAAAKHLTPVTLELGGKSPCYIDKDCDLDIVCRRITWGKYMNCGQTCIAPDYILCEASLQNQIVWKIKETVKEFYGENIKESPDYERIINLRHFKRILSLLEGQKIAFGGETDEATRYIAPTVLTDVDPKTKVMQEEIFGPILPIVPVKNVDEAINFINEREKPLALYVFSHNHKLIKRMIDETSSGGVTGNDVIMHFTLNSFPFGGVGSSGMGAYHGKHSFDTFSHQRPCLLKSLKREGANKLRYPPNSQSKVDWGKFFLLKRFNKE

As to `CCCCCCCCCCCC=O` [dodecanal], the Vmax/KM entry in assay [1] was “metabolize octanal, dodecanal and hexadecanal”; in assay [2] it was “longer fatty aldehydes docecanal (C12) and hexadecanal (C16) were used as substrates”. For the molecule `CCCCCCCCCCCCCCCC=O` [hexadecanal], in assay [1], the Vmax/KM result was “metabolize octanal, dodecanal and hexadecanal”.
